Experimental data: patent publication US12195432B2, “2-arylbenzimidazoles as Ppargc1a activators for treating neurodegenerative diseases” (THE BOARD OF TRUSTEES OF THE LELAND STANFORD JUNIOR …, priority 2018, dated 2025)

Columns and labels:
[1] = tested on: TNF-α production by BV2 cells or PBMC; assay: Cellular assay to measure TNF-α inhibition (LPS stimulation, ELISA); format: cell-based, murine or human; settings: 100 ng/ml LPS over 24 hours, relative to DMSO vehicle, compound concentration and cell type not given
Source text: Oxidative metabolism exerts an anti-inflammatory effect on myeloid cell phenotype (O'Neill L A, Front Immunol. 2014) and Ppargc1a can promote this energy metabolic pathway (Spiegelman B M, Novartis Found Symp. 2007). Thus, pharmacological activation of Ppargc1a would be expected to inhibit the inflammatory response of myeloid cells. This phenomenon can be measured in cultures by a TNF-α inhibition assay.
Cellular Assay Protocol to Measure TNF-α Inhibition
The murine myeloid cell line BV2 or human peripheral blood mononuclear cells (PBMC) are cultured in RPMI 1640 media (Cat #11875119, Gibco) supplemented with 10% fetal bovine serum and 1% L-glutamine 1% penicillin. These cells are then stimulated with 100 ng/ml of lipopolysaccharide (LPS, O111:B4, Cat #L2630, Sigma) over 24 hours. LPS stimulation results in the secretion of the inflammatory cytokine TNF-α by BV2 cells or PBMC, which can be quantified by ELISA in culture supernatant samples per manufacturer's protocol (Cat #558273 for BV2 and Cat #558299 for PBMC, BD Biosciences). To determine whether example compounds 1-78 inhibit TNF-α production by BV2 cells or PBMC, the cells were cultured in the presence of the compounds at different concentrations, and fold reduction in TNF-α production relative to TNF-α production by the same cells cultured in the presence of dimethylsulfoxide (as vehicle control) was determined.

[2] = Pharmacokinetic study (mouse): API levels in plasma, brain and liver; format: in vivo; settings: mice, prodrug 10 mg/kg p.o., 0.5 h-4 h, API = example 1 compound; for plasma levels of API: FIG. 1; for brain levels of API: FIG. 2; for liver levels of API: FIG. 3
Method: Pharmacokinetic studies (mouse) were performed on the example 1, 6-P, 8-P, and 11-P compounds of the present invention. The example 1, 6-P, 8-P, and 11-P compounds were dosed in mice at 10 mg/kg p.o. (n=2). Plasma, brain, and liver were harvested at 0.5 h, 1 h, 2 h, and 4 h. The samples were analyzed by LCMS to determine levels of the example 1 compound, i.e., the active pharmaceutical ingredient (API) for prodrug examples 6-P, 8-P, and 11-P.

Caco-2 cells = assay: Caco-2 permeability assay; format: in vitro ADME; settings: 10 μM, pH 7.4, 2 h; for Caco2 A → B: apparent permeability A→B, without elacridar
Method: Caco-2 Permeability Assay Protocol
The mixture was analyzed by LC-MS/MS.

SMILES | TNFα Inhibition [1] | plasma levels of API [2] | brain levels of API [2] | liver levels of API [2] | also measured
c1ccc(-c2nc3ccccc3[nH]2)cc1 [Example 14, 2-(Phenyl)-1H-benzo[d]imidazole] | C (C = <50% inh.) |  |  |  | 
CC(C)(C)c1ccc(-c2nc3ccccc3n2COC(=O)CCC(=O)O)cc1 [Example 6-P, 4-((2-(4-(tert-Butyl)phenyl)-1H-benzo[d]imidazol-1-yl)methoxy)-4-oxobutanoic acid] |  | measurable amounts | measurable amounts | measurable amounts | 
CC(C)(C)c1ccc(-c2nc3ccccc3n2COC(=O)c2ccc(CN)cc2)cc1.Cl [Example 8-P, (4-(((2-(4-(tert-butyl)phenyl)-1H-benzo[d]imidazol-1-yl)methoxy)carbonyl)-phenyl)methylammonium hydrochloride] |  | measurable amounts | measurable amounts | measurable amounts | 
CC(C)(C)c1ccc(-c2nc3cc(C(F)(F)F)ccc3[nH]2)cc1 [Example 42, (4-tert-Butylphenyl)-5-(trifluoromethyl)-1H-benzo[d]imidazole] |  |  |  |  | Caco2 B → A (Caco-2 cells; apparent permeability B→A): 1.2 nm/s
CC(C)(C)c1ccc(-c2nc3cc(C(N)=O)ccc3[nH]2)cc1 [Example 75, 2-(4-tert-Butylphenyl)-1H-benzo[d]imidazol-5-carboxamide] |  |  |  |  | Caco2 A → B (Caco-2 cells): 16 nm/s
CC(C)(C)c1cccc(-c2nc3ccccc3[nH]2)c1 [Example 58, 2-(3-tert-Butylphenyl)-1H-benzo[d]imidazole] |  |  |  |  | Caco2 A → B (Caco-2 cells): 21 nm/s
CC(C)(C)c1ccc(-c2nc3ccccc3n2COP(=O)([O-])[O-])cc1.[Na+].[Na+] [Example 11-P, Disodium ((2-(4-(tert-butyl)phenyl)-1H-benzo[d]imidazol-1-yl)methyl) phosphate] |  | measurable amounts | measurable amounts | measurable amounts | 
CC(C)(C)c1ccc(-c2nc3ccccc3[nH]2)cc1 [Example 1, 2-(4-(tert-Butyl)phenyl)-1H-benzo[d]imidazole] | A (A = >80% inh.) |  |  |  | 
Clc1ccc(-c2nc3ccccc3[nH]2)cc1 [Example 8, 2-(4-Chlorophenyl)-1H-benzo[d]imidazole] | C (C = <50% inh.) |  |  |  | 
